{"source": "patent US9724309B2", "about": "“Film-form preparation and method for producing the same” (NITTO DENKO CORPORATION, priority 2010, dated 2017)", "data": [{"assay": "Particle size of drug particles by electron microscope", "assay_type": "physicochemical", "settings": "200 particles", "description": "The various drug particles used in the Examples and Comparative Examples were obtained passing the powder through a 32 μm, 53 μm, 90 μm sieve after pulverization, or obtained fine particles by a jet mill (product of Hosokawa Micron Group, spiral jet mill model 50AS) or a spray dryer (product of Büchi Labortechnik AG, mini spray dryer model B-290) after pulverization. The particle sizes of these drug particles were measured by electron microscope (product of Hitachi High-Technologies Corp., model TM-1000) and the 50 vol % average particle size was calculated from the measurement results of 200 particles. This value was used as the particle size index of the particles.", "units": {"50 vol % average particle size": "um"}, "values": [{"smiles": "Cn1c(=O)c2[nH]cnc2n(C)c1=O", "note": "[Aminophyllin particles, Aminophyllin]", "50 vol % average particle size": 4.3}, {"smiles": "N[C@@H](CCC(=O)N[C@@H](CS)C(=O)NCC(=O)O)C(=O)O", "note": "[Glutathione (reduced form) particles, Glutathione (reduced form)]", "50 vol % average particle size": 5.3}, {"smiles": "COc1cc(S(=O)(=O)[O-])ccc1O.O.[K+]", "note": "[Potassium guaiacolsulfonate particles A, Potassium guaiacolsulfonate]", "50 vol % average particle size": 2.1}, {"smiles": "COc1cc(S(=O)(=O)[O-])ccc1O.O.[K+]", "note": "[Potassium guaiacolsulfonate particles B, Potassium guaiacolsulfonate]", "50 vol % average particle size": 40.4}, {"smiles": "COc1cc(S(=O)(=O)[O-])ccc1O.O.[K+]", "note": "[Potassium guaiacolsulfonate particles C, Potassium guaiacolsulfonate]", "50 vol % average particle size": 80.4}, {"smiles": "COc1cc(S(=O)(=O)[O-])ccc1O.O.[K+]", "note": "[Potassium guaiacolsulfonate particles, Potassium guaiacolsulfonate]", "50 vol % average particle size": 5.0}]}]}
